Here are results for 25 compounds from ChEMBL document CHEMBL1201862, “PubChem BioAssay data set” (2004).

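Exposure lasted 48 hours, with cells grown in 96-well plates and compounds tested at five concentrations. GI50: concentration for 50% inhibition of growth.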 Activity calls are given as the source filed them. No stated cut-off is given here; in the data, active = GI50 up to about 1.1 µM and inactive = higher.

Common to all, as to test: NCI tumour cell line growth inhibition, 48 h
Assay [1] concerns M19-MEL.
Assay [2] relates to SNB-78.
For assay [3], the system named is DMS-273.
Assay [4] concerns KM-20L2.
The test system of assay [5] is DMS-114.
The test system of assay [6] is LXFL 529.
The test system of assay [7] is XF498.
Assay [8] has as its system RXF 631.
The test system of assay [9] is HOP-18.

For the compound `CS/C(=N\C(=S)N(C)C)N(c1ccccc1)c1nc(N(C)C)s[s+]1`, the GI50 in assay [1] is 3.18 µM (inactive); in [2] it was 16.9 µM (inactive); in assay [3], 3.52 µM (inactive); in [4], 15.9 µM (inactive); in assay [5] it was 0.708 µM (active); in assay [6], 3.87 µM (inactive).

Take `N#CCCc1nc2ccc(Br)cc2c(=O)n1-c1ccc(O)c([N+](=O)[O-])c1`: the GI50 is 19.4 µM (inactive) in [1]; 24.2 µM (inactive) in assay [2]; 46.3 µM (inactive) in assay [4]; 17.1 µM (inactive) in assay [7]; 17.9 µM (inactive) in assay [8]; 20 µM (inactive) in assay [6].

In the case of `O=C(O)/C=C/c1ccncc1`, the GI50 in assay [1], in assay [2], in [3], in assay [4], in assay [5] and in assay [7] was > 100 µM (inactive) in each case. Moreover, in assay [6], the GI50 was > 100 µM (inactive).

As to `C=C1CCC23CC(CC[C@@H]2[C@@]12C[C@@H](c1ccoc1)OC2=O)OC3=O` (stereo not given in full), the GI50 in [1], in [9], in [2], in assay [3], in assay [4] and in assay [5] was > 100 µM (inactive) in each case. The GI50 in [7] and in [6] was > 100 µM (inactive) throughout.

For the compound `O=C(O)COc1ccccc1C(=O)Nc1ccccc1`, the GI50 in assay [1], in assay [2], in assay [3], in assay [4], in assay [7] and in assay [6] was > 100 µM (inactive) each time.

As for `COC(=O)/C(=N/O)C(C(=O)OC)C(=O)C(=O)Nc1c(Cl)cc(C)cc1S(=O)(=O)O` (stereo not given), the GI50 in assay [1] is > 100 µM (inactive); in assay [9], > 100 µM (inactive); in assay [2], > 100 µM (inactive); in assay [3] it was 18 µM (inactive); in assay [4], > 100 µM (inactive); in assay [5], 56.1 µM (inactive). For the same compound, the GI50 in [7], in assay [8] and in assay [6] was > 100 µM (inactive) each time.

For the compound `O=C(CC(=O)n1nc(-c2ccccc2)c(/N=N/c2ccc(Cl)cc2)c1-c1ccccc1)Nc1ccc(Cl)cc1`, the GI50 was > 47.8 µM (inactive) in assay [1]; > 100 µM (inactive) in [9]; > 100 µM (inactive) in [2]; > 55.1 µM (inactive) in [3]; > 76 µM (inactive) in [4]; > 40.6 µM (inactive) in [5]. Further, the results for the GI50 in assay [8] and in [6] were > 100 µM (inactive) and > 60 µM (inactive), respectively.

Turning to `COC(=O)C1CCC[C@H]2C(CO)=C(C)C(=O)[C@@H]12` (stereo not given in full), the GI50 in [9], in [2], in assay [3], in [4], in assay [5] and in [7] was > 100 µM (inactive) throughout. Besides, in [6], the GI50 was > 100 µM (inactive).

`CCOC(=O)NC(=O)c1cn(CCSCCOC(=O)NCCCCCCNC(=O)OCCSCCn2cc(C(=O)NC(=O)OCC)c(=O)n(C)c2=O)c(=O)n(C)c1=O`: the GI50 was 21.4 µM (inactive) in assay [1]; 0.237 µM (active) in [9]; > 100 µM (inactive) in assay [2]; 39.7 µM (inactive) in assay [4]; 18.1 µM (inactive) in assay [7]; 21 µM (inactive) in [8]. Also, in assay [6], the GI50 is 5.36 µM (inactive).

`COC1/C(=C\c2ccccc2I)c2ccccc2N1C(C)=O` (stereo not given): the GI50 in assay [1] was 19.6 µM (inactive); in assay [9] it was 19 µM (inactive); in assay [2], 25.2 µM (inactive); in assay [3] it was 11.7 µM (inactive); in [4] it was 15.7 µM (inactive); in [5], 17 µM (inactive). For the same compound, in assay [6], the GI50 is 12.9 µM (inactive).

With `O=C(N[C@@H](c1ccccc1)[C@@H](O)C(=O)OCc1ccc2c(c1)OCO2)c1ccccc1`, the GI50 in assay [1], in [9], in [2], in [3], in [4] and in assay [5] was > 100 µM (inactive) in each case. In addition, the GI50 in assay [7] is > 76.2 µM (inactive).

With `CC1C(=O)CC(c2cccs2)N(N=O)C1c1cccs1` (stereo not given), the GI50 was 47.8 µM (inactive) in assay [1]; 75.2 µM (inactive) in assay [9]; 35.7 µM (inactive) in assay [2]; 38.5 µM (inactive) in assay [3]; 71 µM (inactive) in assay [4]; 3.08 µM (inactive) in assay [7].

Turning to `CCCC/C=C1\CCC(CN2CCOCC2)C1=O` (stereo not given), the GI50 was 4.02 µM (inactive) in assay [1]; 0.653 µM (active) in assay [9]; 8.39 µM (inactive) in assay [2]; 3.74 µM (inactive) in assay [3]; 4.89 µM (inactive) in [4]; 4.86 µM (inactive) in assay [5]. The GI50 in assay [7] was 1.64 µM (inactive); in assay [8], 14.9 µM (inactive); in [6] it was 1.43 µM (inactive).

Consider `Cc1cccc(C(C)(C)C)c1NC(=O)CCc1nnc(S)[nH]1`, for which the GI50 in assay [1], in assay [2], in [3], in [4], in assay [5] and in [7] was > 100 µM (inactive) each time. Besides, the GI50 in assay [8] and in assay [6] was > 100 µM (inactive) in each case.

On to `Cc1cc(O)c2c(c1)C(=O)c1cc(O)cc(O)c1C2=O` [EMODIN], for which the GI50 in assay [9] was 3.94 µM (inactive); in assay [2], 49.2 µM (inactive); in assay [3] it was 19.8 µM (inactive); in [4], 40.8 µM (inactive); in assay [5], 41.2 µM (inactive); in assay [7], 26.1 µM (inactive). Besides, the GI50 in assay [8] was 39.3 µM (inactive); in assay [6], 24.4 µM (inactive).

For `Cc1nc2c(o1)/C(=N\c1ccccc1)c1ccccc1/C2=N/c1ccccc1`, the GI50 is 55.1 µM (inactive) in assay [1]; > 100 µM (inactive) in assay [9]; 70.1 µM (inactive) in assay [2]; 63.5 µM (inactive) in [3]; > 100 µM (inactive) in assay [4]; 39.2 µM (inactive) in assay [5]. Besides, the GI50 was > 100 µM (inactive) in assay [7], 81.7 µM (inactive) in assay [8] and 45.3 µM (inactive) in assay [6].

With `O=c1oc2c(ccc3occc32)c(N2CCCCC2)c1-c1ccccc1`, the GI50 in [1] is > 100 µM (inactive); in assay [9], > 88.5 µM (inactive); in assay [2], > 91.8 µM (inactive); in [3], > 100 µM (inactive); in [4] it was > 100 µM (inactive); in assay [5], > 86.1 µM (inactive). For the same compound, the GI50 in assay [7] was > 100 µM (inactive).

`CCc1ccccc1NC(=O)CCc1n[nH]c(=S)o1`: the GI50 in assay [1], in [9], in assay [2], in assay [3], in [4] and in assay [5] was > 100 µM (inactive) throughout. Also, the GI50 in assay [6] was > 100 µM (inactive).

On to `CN(C)/N=C(\CCN1CCCC1)CC(c1ccccc1)c1c(O)c2ccccc2oc1=O` (stereo not given), for which the GI50 in assay [1], in assay [4], in assay [7] and in assay [6] was > 100 µM (inactive) each time.

Regarding `O=c1nc(-c2ccccc2)scc1-c1ccccc1`, the GI50 in [1], in [9], in [4], in assay [5], in assay [7] and in [8] was > 100 µM (inactive) throughout. Also, the GI50 in assay [6] is > 100 µM (inactive).

For the compound `CC(=O)C(=Cc1cn(C)c(=O)n(C)c1=O)C(C)=O`, the GI50 is 109 µM (inactive) in assay [1]; 160 µM (inactive) in assay [9]; 214 µM (inactive) in assay [2]; 98.6 µM (inactive) in [3]; 85.7 µM (inactive) in assay [4]; 88.9 µM (inactive) in [5]. Further, the GI50 in assay [7] is 37.8 µM (inactive).

For `CCOC(=O)/C=C/c1c[nH]c(=O)[nH]c1=O`, the GI50 in assay [1], in assay [9], in assay [2], in assay [3], in assay [4] and in assay [5] was > 75 µM (inactive) in each case. In addition, in assay [7], the GI50 was 11.9 µM (inactive).

With `CC1OC=CC(=O)C1O` (stereo not given), the GI50 in [1], in [2], in assay [4], in [7] and in assay [6] was > 100 µM (inactive) each time.

Regarding `CCOC1=CP(=O)(OCC)CC(C)=C1Cl` (stereo not given), the GI50 was > 100 µM (inactive) in assay [1]; > 100 µM (inactive) in assay [2]; 15.7 µM (inactive) in assay [3]; > 100 µM (inactive) in [4]; > 100 µM (inactive) in [5]; > 100 µM (inactive) in assay [6].

On to `CCCCCCc1cn([C@H]2C[C@H](O)[C@@H](CO)O2)c(=O)[nH]c1=O`, for which the GI50 in assay [1], in assay [9], in assay [2], in assay [3], in [4] and in assay [5] was > 100 µM (inactive) in each case. The GI50 in assay [7] was > 100 µM (inactive).
